In publication PMC6384730, “Systematic Identification of Thiosemicarbazides for Inhibition of Toxoplasma gondii Growth In Vitro” (Molecules, 2019):
In brackets after ≈: the same amount, converted by molar mass. Several values for one entry are separate records, joined by “and”; a condition that tells them apart may be missing. Equal entries are not always repeated. Where two headings read alike, the source gives them in different places.

Tests used:
L929 cells = experiment: MTT cell viability (cytotoxicity) assay on L929 cells; assay type: cell-based, mouse; conditions: L929 cells, 24 h exposure
Description: (§1) Cells were trypsinized twice a week, and seeded at density 1 × 10^6 per T25 cell culture flask, and incubated for 24-48 h at 37 °C and 10% CO2 to achieve a confluent monolayer. […] The final concentration of DMSO in compounds dilutions was not higher than 1.00%. […] Dilution of the all compounds 2-22 and drug were freshly prepared before the cells were exposed. […] The MTT assay was used according to international standards: ISO 10993-5:2009(E), Biological evaluation of medical devices, Part 5: Tests for in vitro cytotoxicity. […] Afterward, the culture medium in the plates was replaced by 100 μL of compounds and sulfadiazine suspension and the cells were exposed for 24 h. Then, 1 mg/mL of MTT solution in RPMI 1640 without phenol red was prepared and 50 μL of the solution was added to each well and incubated at 37 °C, 10% CO2 for 2 h. Mitochondrial dehydrogenases of viable cells reduced the yellowish water-soluble MTT to water-insoluble formazan crystals, which were solubilized with dimethyl sulfoxide (DMSO). The cell culture medium was aspirated cautiously, after which 150 μL DMSO was added to each well, the plates were gently mixed, then 25 μL 0.1 M glycine buffer (pH = 10.5) (Sigma) was added. Optical density was read on the ELISA reader (Multiskan EX, Labsystems, Vienna, VA, USA) at 570 nm. The results were expressed as the percentage of viability compared to untreated cells. All experiments were performed in triplicate. Moreover, cells were treated with 4.0-0.03% concentration of DMSO as a compounds solvent (data not shown).

[1] = as above; assay type: cell-based, mouse; conditions: mouse, 24 h, % of untreated cells; for viability at 24 h, 62.5 µg/mL: 62.50 µg/mL
Description: as §1

T. gondii RH tachyzoites = experiment: Influence on T. gondii proliferation ([3H]uracil incorporation) in infected Vero cells; assay type: cell-based, Toxoplasma gondii; conditions: for IC50: Toxoplasma gondii, Vero, read-out: IC50 (50% inhibition of T. gondii proliferation in vitro)
Description: Vero cell line (African green monkey kidney) (ATCC® CCL-81™) were maintained in EMEM (EMEM/10%HIFBS/P/S) (Eagle’s Minimum Essential Medium—ATCC® 30-2003™) culture medium supplemented with 10% HIFBS (Heat-Inactivated (1 h in 56°C) Fetal Bovine Serum—ATCC), 100 U/mL penicillin, 100 μg/mL streptomycin. The cell line was trypsinized (using Trypsin-EDTA Solution, 1X ATCC® 30-2101™) twice a week, and seeded at density 1 × 10^6 per T25 cell culture flask (Falcon), and incubated for 24–48 h at 37 °C and 5 CO2 to achieve a confluent monolayer. The highly virulent RH strain of Toxoplasma gondii, haplogroup I (ATCC® PRA-310™) were maintained as tachyzoites according to the ATCC product sheet, in DMEM (Dulbecco’s Modified Eagle’s Medium—ATCC® 30-2002™) (DMEM/3%HIFBS/P/S—parasite culture medium) under condition 37 °C and 5 CO2 and passage twice per week.
The Vero cells were seeded on 96-well plates (1 × 10^5 cells/100 µL/well) in EMEM/10%HIFBS/P/S. After 24 h of incubation medium was removed and then T. gondii RH tachyzoites were added to the cell monolayers at density 1 × 10^5 cells/100 µL/well in DMEM/3%HIFBS/P/S. One hour later different compounds and sulfadiazine dilutions (100 µL/well) in parasite culture medium were added to the cell monolayers with T. gondii. After subsequent 24 h of incubation 1 µCi/well [5,6-^3H] uracil (Moravek Biochemicals Inc., Brea, CA, USA) was applied to each microculture for further 72 h. The amount of the isotope incorporated into the parasite nucleic acid pool, corresponding to the parasite growth, was measured by liquid scintillation counting using 1450 Microbeta Plus Liquid Scintillation Counter (Wallac Oy, Turku, Finland). The results were expressed as counts per minute (CPM) and transformed to the percentage of viability compared to untreated cells. All experiments were performed in triplicate.

[2] = RH tachyzoites in Vero cells, [3H]uracil incorporation, highest concentration tested 125 µg/mL

Compound	CC30 (concentration required for 30% cells proliferation inhibition) (L929 cells)	viability at 24 h, 3.91 µg/mL ([1]; L929 mouse fibroblast cells)	viability at 24 h, 7.81 µg/mL ([1]; L929 mouse fibroblast cells)	viability at 24 h, 15.63 µg/mL ([1]; L929 mouse fibroblast cells)	viability at 24 h, 31.25 µg/mL ([1]; L929 mouse fibroblast cells)	viability at 24 h, 62.5 µg/mL ([1]; L929 mouse fibroblast cells)	viability at 24 h, 125 µg/mL ([1]; L929 mouse fibroblast cells)	viability at 24 h, 250 µg/mL ([1]; L929 mouse fibroblast cells)	viability at 24 h, 500 µg/mL ([1]; L929 mouse fibroblast cells)	IC50 (T. gondii RH tachyzoites; [2])	melting point	further results
Cc1nc[nH]c1C(=O)NNC(=S)Nc1cccc([N+](=O)[O-])c1 [Compound 3, 1-(4-Methylimidazol-5-oyl)-4-(3-nitrophenyl)thiosemicarbazide]	141.25 µg/mL	95.4%	94.6%	94.6%	89.4%	79%	72.4%	55.8%	15.3%	14.8 µg/mL (≈ 46.1 µM)	–	–
COc1ccccc1NC(=S)NNC(=O)c1[nH]cnc1C [Compound 5, 4-(2-Methoxyphenyl)-1-(4-methylimidazol-5-oyl)thiosemicarbazide]	138.04 µg/mL	95.8%	91.9%	89%	86.5%	78.5%	69.7%	63.1%	53.6%	33.1 µg/mL (≈ 108 µM)	–	–
Cc1nc[nH]c1C(=O)NNC(=S)Nc1cccc(Cl)c1 [Compound 10, 4-(3-Chlorophenyl)-1-(4-methylimidazol-5-oyl)thiosemicarbazide]	112.20 µg/mL	95.7%	94.1%	93.5%	74.6%	72.1%	69.9%	61.8%	22.1%	25.7 µg/mL (≈ 83 µM)	203 to 205 °C	–
Cc1nc[nH]c1C(=O)NNC(=S)Nc1c(C(C)C)cccc1C(C)C [Compound 22, 4-(2,6-Diisopropylphenyl)-1-(4-methylimidazol-5-oyl)thiosemicarbazide]	190.55 µg/mL	116%	110%	101%	80.7%	79.8%	76.6%	68.2%	58.8%	97.7 µg/mL (≈ 272 µM)	202 to 204 °C	–
Cc1nc[nH]c1C(=O)NNC(=S)Nc1ccc([N+](=O)[O-])cc1 [Compound 4, 1-(4-Methylimidazol-5-oyl)-4-(4-nitrophenyl)thiosemicarbazide]	238.78 µg/mL	98.5%	95.7%	95.1%	93.1%	88.9%	79.6%	66.9%	23.2%	21.6 µg/mL (≈ 67.5 µM)	235 to 237 °C	fold more potent than sulfadiazine (T. gondii RH tachyzoites; T. gondii proliferation, IC50 ratio): 184 fold
Cc1nc[nH]c1C(=O)NNC(=S)Nc1ccccc1[N+](=O)[O-] [Compound 2, 1-(4-Methylimidazol-5-oyl)-4-(2-nitrophenyl)thiosemicarbazide]	181.55 µg/mL	103%	101%	96.7%	94.6%	89.7%	75.3%	53.4%	29.1%	43 µg/mL (≈ 134 µM)	215 to 217 °C	–
Cc1nc[nH]c1C(=O)NNC(=S)NCCCl [Compound 9]	>500.00 µg/mL and >500 µg/mL	–	–	–	–	–	–	–	–	–	175 to 177 °C	viability at 24 h, 3.91 µg/mL [1]: 100%; viability at 24 h, 7.81 µg/mL [1]: 98.3%; viability at 24 h, 15.63 µg/mL [1]: 97.1%; viability at 24 h, 31.25 µg/mL [1]: 96%; viability at 24 h, 62.5 µg/mL [1]: 95.6%; viability at 24 h, 125 µg/mL [1]: 94.4%; viability at 24 h, 250 µg/mL [1]: 92.8%; viability at 24 h, 500 µg/mL [1]: 87.4%; IC50 (T. gondii RH tachyzoites): > 125 µg/mL
